Drawing on patent publication US8999974B2, “Acyl piperazine derivatives as TTX-S blockers” (Raqualia Pharma Inc., priority 2010, dated 2015), this text covers IC50 for 28 compounds.

T1 sequence (Q9NY46 whole entry): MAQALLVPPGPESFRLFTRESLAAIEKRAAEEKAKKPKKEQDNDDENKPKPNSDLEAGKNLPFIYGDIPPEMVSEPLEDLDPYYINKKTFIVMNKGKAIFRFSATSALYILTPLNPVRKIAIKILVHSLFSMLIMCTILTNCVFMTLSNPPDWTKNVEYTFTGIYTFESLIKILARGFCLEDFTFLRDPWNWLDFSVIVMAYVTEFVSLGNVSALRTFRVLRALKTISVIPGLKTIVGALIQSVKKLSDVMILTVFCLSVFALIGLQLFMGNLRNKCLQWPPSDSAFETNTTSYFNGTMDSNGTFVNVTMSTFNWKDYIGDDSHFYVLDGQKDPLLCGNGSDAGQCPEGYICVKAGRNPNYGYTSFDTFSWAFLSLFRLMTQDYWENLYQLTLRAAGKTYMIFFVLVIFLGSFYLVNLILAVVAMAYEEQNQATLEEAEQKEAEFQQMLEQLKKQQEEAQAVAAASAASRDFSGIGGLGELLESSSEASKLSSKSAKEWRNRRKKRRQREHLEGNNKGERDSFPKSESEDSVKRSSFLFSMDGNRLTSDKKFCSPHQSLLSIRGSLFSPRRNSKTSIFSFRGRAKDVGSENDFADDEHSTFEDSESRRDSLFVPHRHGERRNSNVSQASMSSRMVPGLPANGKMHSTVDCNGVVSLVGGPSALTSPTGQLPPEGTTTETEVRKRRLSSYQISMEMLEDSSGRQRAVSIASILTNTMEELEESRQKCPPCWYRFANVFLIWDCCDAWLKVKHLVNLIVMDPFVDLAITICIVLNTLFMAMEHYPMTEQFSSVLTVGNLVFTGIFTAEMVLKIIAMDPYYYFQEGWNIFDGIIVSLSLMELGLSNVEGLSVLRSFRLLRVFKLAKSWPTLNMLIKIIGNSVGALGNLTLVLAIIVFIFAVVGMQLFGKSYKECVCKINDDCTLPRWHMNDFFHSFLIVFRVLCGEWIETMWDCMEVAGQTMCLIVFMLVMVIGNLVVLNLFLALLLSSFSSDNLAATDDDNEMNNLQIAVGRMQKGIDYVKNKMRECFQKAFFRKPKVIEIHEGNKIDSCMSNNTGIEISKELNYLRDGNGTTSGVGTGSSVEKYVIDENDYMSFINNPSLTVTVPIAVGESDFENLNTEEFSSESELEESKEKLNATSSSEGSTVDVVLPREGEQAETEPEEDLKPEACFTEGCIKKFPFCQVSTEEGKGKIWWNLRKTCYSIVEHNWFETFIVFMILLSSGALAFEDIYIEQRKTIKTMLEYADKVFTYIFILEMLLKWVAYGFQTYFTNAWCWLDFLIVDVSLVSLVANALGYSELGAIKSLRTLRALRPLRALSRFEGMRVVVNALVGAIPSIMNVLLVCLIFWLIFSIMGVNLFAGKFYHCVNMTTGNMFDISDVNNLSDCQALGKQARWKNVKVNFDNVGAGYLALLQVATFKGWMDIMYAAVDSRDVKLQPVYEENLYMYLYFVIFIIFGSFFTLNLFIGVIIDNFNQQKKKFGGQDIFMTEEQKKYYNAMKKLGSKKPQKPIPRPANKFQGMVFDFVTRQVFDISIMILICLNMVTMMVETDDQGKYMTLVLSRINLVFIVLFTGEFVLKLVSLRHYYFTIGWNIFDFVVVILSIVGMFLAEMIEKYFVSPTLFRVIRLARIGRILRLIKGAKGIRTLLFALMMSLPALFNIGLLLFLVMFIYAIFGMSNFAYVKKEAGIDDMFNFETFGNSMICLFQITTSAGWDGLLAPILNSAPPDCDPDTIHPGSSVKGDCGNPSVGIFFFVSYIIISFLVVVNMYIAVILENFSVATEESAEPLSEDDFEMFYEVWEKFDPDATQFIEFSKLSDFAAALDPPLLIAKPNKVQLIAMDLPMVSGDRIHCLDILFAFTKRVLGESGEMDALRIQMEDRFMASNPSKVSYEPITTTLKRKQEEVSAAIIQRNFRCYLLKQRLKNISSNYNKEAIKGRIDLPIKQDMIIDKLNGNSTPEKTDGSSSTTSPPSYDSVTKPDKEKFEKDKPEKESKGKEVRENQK
T2 sequence (Q15858 whole entry): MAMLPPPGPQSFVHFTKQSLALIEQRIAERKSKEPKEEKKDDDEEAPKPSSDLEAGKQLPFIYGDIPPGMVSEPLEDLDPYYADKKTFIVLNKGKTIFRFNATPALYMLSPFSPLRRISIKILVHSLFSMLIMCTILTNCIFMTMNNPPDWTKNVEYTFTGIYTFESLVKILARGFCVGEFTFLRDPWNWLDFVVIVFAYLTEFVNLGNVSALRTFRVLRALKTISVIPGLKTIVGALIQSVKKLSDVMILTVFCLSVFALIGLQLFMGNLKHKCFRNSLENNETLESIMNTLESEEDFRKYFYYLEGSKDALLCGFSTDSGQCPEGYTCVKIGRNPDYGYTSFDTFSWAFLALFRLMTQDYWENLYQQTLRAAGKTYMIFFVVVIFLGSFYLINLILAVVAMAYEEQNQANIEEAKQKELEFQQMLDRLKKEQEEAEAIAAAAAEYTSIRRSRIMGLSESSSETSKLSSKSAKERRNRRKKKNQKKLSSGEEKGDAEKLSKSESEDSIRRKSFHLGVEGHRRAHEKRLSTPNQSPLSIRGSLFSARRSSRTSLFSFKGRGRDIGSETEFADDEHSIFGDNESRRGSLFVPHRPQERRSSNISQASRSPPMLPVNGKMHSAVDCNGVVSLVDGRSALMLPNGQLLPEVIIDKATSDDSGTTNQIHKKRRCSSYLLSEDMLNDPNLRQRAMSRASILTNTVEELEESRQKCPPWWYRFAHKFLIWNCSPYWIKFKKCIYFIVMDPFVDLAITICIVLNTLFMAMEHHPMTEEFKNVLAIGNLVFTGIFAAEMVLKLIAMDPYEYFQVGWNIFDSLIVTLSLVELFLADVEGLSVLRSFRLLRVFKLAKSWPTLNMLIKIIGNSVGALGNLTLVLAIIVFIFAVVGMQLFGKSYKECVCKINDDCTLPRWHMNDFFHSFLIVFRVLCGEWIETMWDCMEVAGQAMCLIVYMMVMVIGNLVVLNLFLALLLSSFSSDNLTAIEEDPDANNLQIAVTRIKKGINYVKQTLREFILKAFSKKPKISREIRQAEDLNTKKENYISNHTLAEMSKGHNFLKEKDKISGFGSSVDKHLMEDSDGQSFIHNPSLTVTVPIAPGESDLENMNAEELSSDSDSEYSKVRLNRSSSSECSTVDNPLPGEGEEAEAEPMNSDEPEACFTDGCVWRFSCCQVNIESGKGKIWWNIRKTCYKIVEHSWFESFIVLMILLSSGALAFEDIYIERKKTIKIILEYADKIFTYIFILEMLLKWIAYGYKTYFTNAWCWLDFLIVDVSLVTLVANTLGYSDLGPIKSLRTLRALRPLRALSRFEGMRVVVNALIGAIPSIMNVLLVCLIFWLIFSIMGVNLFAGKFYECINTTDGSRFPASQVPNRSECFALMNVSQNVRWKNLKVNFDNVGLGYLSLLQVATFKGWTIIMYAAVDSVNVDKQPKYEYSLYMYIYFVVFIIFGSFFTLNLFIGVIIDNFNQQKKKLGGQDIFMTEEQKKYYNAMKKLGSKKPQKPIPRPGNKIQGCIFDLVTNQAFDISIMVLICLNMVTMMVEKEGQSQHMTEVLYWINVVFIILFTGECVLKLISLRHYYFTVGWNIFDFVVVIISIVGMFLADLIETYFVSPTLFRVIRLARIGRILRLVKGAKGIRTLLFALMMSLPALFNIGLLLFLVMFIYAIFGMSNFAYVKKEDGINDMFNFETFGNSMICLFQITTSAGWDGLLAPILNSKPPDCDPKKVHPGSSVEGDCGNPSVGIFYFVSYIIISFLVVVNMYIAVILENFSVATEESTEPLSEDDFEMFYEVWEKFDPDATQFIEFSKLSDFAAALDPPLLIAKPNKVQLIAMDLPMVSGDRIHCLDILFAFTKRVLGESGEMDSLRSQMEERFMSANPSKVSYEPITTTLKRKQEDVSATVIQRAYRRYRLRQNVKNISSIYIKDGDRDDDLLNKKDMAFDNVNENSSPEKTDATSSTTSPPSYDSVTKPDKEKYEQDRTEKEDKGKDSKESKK

The first test addresses T1, human NaV1.3 (Homo sapiens, UniProt Q9NY46).
T1 construct: expressed in transfected cells; host or cells: HEK293
Put plainly: FRET assay (EFS, FDSS) on HEK293 cells expressing human NaV1.3 channels. Type of test: cell-based. To be noted: FRET assay, HEK293 cells expressing human NaV1.3; read-out: IC50 against Nav1.3. On the procedure: (§1) This screen was used to determine the effects of compounds on human NaV1.3, human Nav1.7, and human Nav1.5 channels, utilising electrical field stimulation (EFS) system in 96-well plate format on FDSS (Hamamatsu Photonics) platform. The change of membrane potential was monitored with FRET dye pair, oxonol (DiSBAC2(3)) and coumarin (CC2-DMPE).
Each HEK293 cells expressing human NaV1.3 channels and HEK293 cells expressing human NaV1.5 channels were grown in T225 flasks, in a 5% CO2 humidified incubator to about 80% confluence. Media composition consisted of Dulbecco's Modified Eagle Medium (high glucose), 10% FCS, 100 units/ml Penicillin, 100 microgram/ml Streptomycin and 500 microgram/ml Geneticine.
(§2) Protocol: • Seeded each cell lines (1×10^5 cells/well) into poly-D-lysine coated 96-well plates prior to experimentation. • Incubated at 37° C. in 5% CO2 for 24 hours. • Washed each well with assay buffer (140 mM NaCl, 4.5 mM KCl, 10 mM D-Glucose, 2 mM CaCl2, 1 mM MgCl2, 10 mM HEPES, pH 7.4 adjusted with NaOH) twice. • Added 1st loading solution containing 10 microM CC2-DMPE and 0.06% Pluronic F-127 in assay buffer. • Incubated the plate at room temperature in dark for 1 hour. • Removed 1st loading solution and added 2nd loading solution containing 15 microM DiSBAC2(3), 0.555 mM VABSC-1 and 0.004% Pluronic F-127 in assay buffer. • Placed the plate under the dark at room temperature for 25 minutes. • Added compound solutions into the assay plate. • Set the assay plate in FDSS and placed an EFS device on the plate. • Measured EFS-induced fluorescent response by FDSS.
(§3) The data were analyzed and reported as normalized ratios of intensities measured at […]. The process of calculating these ratios was performed as follows:
(§4) [formula] This analysis was performed using a computerized specific program designed for FDSS generated data. Fluorescence ratio values were plotted using XLfit to determine an IC50 value for each compound.
One may read the IC50 as the point on the concentration scale where inhibition reaches its midpoint. On to `CC(C)COc1cc(N2CCN(C(=O)c3ccc(-n4cccn4)nc3)CC2)ncn1` [Example 214, (6-(1H-pyrazol-1-yl)pyridin-3-yl)(4-(6-isobutoxypyrimidin-4-yl)piperazin-1-yl)methanone], for which the 50% inhibitory concentration (IC50) is < 3 µM.
On the same count and under the same terms, in the case of `CC(C)COc1cc(N2CCN(C(=O)c3cnn(-c4ccccc4)c3)CC2)ncn1` [Example 215, (4-(6-isobutoxypyrimidin-4-yl)piperazin-1-yl)(1-phenyl-1H-pyrazol-4-yl)methanone] it was < 3 µM; in that of `CCn1nc(C(F)(F)F)cc1C(=O)N1CCN(c2cc(OCC(C)C)ncn2)CC1` [Example 217, (1-ethyl-3-(trifluoromethyl)-1H-pyrazol-5-yl)(4-(6-isobutoxypyrimidin-4-yl)piperazin-1-yl)methanone], < 3 µM; in that of `Cc1c(C(=O)N2CCN(c3cc(OC4CCC4)ncn3)CC2)nnn1-c1ccccc1` [Example 219, (4-(6-cyclobutoxypyrimidin-4-yl)piperazin-1-yl)(5-methyl-1-phenyl-1H-1,2,3-triazol-4-yl)methanone], < 3 µM.
On the same count and under the same terms, for `O=C(Cn1nc2ccccc2n1)N1CCN(c2cc(OC3CCC3)ncn2)CC1` [Example 220, 2-(2H-benzo[d][1,2,3]triazol-2-yl)-1-(4-(6-cyclobutoxypyrimidin-4-yl)piperazin-1-yl)ethanone] the value was < 3 µM; for `CCn1nc(C(=O)N2CCN(c3cc(OCC(C)C)ncn3)CC2)cc1C(F)(F)F` [Example 228, (1-ethyl-5-(trifluoromethyl)-1H-pyrazol-3-yl)(4-(6-isobutoxypyrimidin-4-yl)piperazin-1-yl)methanone], < 3 µM; for `CCOc1cccc(C(=O)N2CCN(c3cc(OCC(C)C)ncn3)CC2)n1` [Example 231, (6-ethoxypyridin-2-yl)(4-(6-isobutoxypyrimidn-4-yl)piperazin-1-yl)methanone], < 3 µM.
Still for that read-out and setting: for `CC(C)COc1cc(N2CCN(C(=O)c3cccc(OCC(F)(F)F)n3)CC2)ncn1` [Example 232, (4-(6-isobutoxypyrimidin-4-yl)piperazin-1-yl)(6-(2,2,2-trifluoroethoxy)pyridin-2-yl)methanone] the value was < 3 µM.
Consider `CC(C)COc1cc(N2CCN(C(=O)c3csc(C(C)C)n3)CC2)ncn1` [Example 233, (4-(6-isobutoxypyrimidin-4-yl)piperazin-1-yl)(2-isopropylthiazol-4-yl)methanone], for which the IC50 was < 3 µM.
Regarding `CCOc1cc(N2CCN(C(=O)c3csc(-c4ccccn4)n3)CC2)ncn1` [Example 241, (4-(6-ethoxypyrimidin-4-yl)piperazin-1-yl)(2-(pyridin-2-yl)thiazol-4-yl)methanone], the half-maximal inhibitory concentration (IC50) is < 3 µM.

A further test concerns the target T2, human Nav1.7 (Homo sapiens, UniProt Q15858).
T2 construct: expressed in transfected cells; host or cells: CHO
Briefly: FRET assay (EFS, FDSS) on CHO cells expressing human NaV1.7 channels. Type of test: cell-based. To be noted: FRET assay, CHO cells expressing human NaV1.7; read-out: IC50 against Nav1.7. As for the experimental part: as §1
CHO cells expressing human NaV1.7 channels were grown in T225 flasks, in a 5% CO2 humidified incubator to about 80% confluence. Media composition consisted of HAM/F12 with Glutamax I, 10% FCS, 100 units/ml Penicillin and 100 microgram/ml Hygromycin.
as §2, §3, §4
Regarding `Cc1ccc(C(=O)N2CCN(c3cc(OCC(F)(F)F)ncn3)CC2)cc1F` [Example 8, 3-(fluoro-4-methylphenyl)(4-(6-(2,2,2-trifluoroethoxy)pyrimidin-4-yl)piperazin-1-yl)methanone], the IC50 is < 3 µM.
For `CC(C)COc1cc(N2CCN(C(=O)[C@@H](NC(=O)OC(C)(C)C)c3ccccc3)CC2)ncn1` [Example 10, (S)-tert-butyl (2-(4-(6-isobutoxypyrimidin-4-yl)piperazin-1-yl)-2-oxo-1-phenylethyl)carbamate], the IC50 is < 3 µM.
Consider `CC(C)COc1cc(N2CCN(C(=O)[C@@H](N)c3ccccc3)CC2)ncn1` [Example 27, (S)-2-amino-1-(4-(6-isobutoxypyrimidin-4-yl)piperazin-1-yl)-2-phenylethanone], for which the IC50 is < 3 µM.
Still for that read-out and setting: in the case of `CC(C)COc1cc(N2CCN(C(=O)c3ccc4cccc(O)c4n3)CC2)ncn1` [Example 32, (8-hydroxyquinolin-2-yl)(4-(6-isobutoxypyrimidin-4-yl)piperazin-1-yl)methanone] it was < 3 µM; in that of `CC(C)COc1cc(N2CCN(C(=O)c3ccc(Cl)c(F)c3)CC2)ncn1` [Example 39, (4-chloro-3-fluorophenyl)(4-(6-isobutoxypyrimidin-4-yl)piperazin-1-yl)methanone], < 3 µM; in that of `CC(C)COc1cc(N2CCN(C(=O)c3ccc(C(F)(F)F)cc3O)CC2)ncn1` [Example 42, (2-hydroxy-4-(trifluoromethyl)phenyl)(4-(6-isobutoxypyrimidin-4-yl)piperazin-1-yl)methanone], < 3 µM.
Still for that read-out and setting: for `CC(C)COc1cc(N2CCN(C(=O)c3cc4ccccc4n3C)CC2)ncn1` [Example 43, (4-(6-isobutoxypyrimidin-4-yl)piperazin-1-yl)(1-methyl-1H-indol-2-yl)methanone] the value was < 3 µM.
As for `CC(C)COc1cc(N2CCN(C(=O)Cc3c[nH]c4ccc(F)cc34)CC2)ncn1` [Example 60, 2-(5-fluoro-1H-indol-3-yl)-1-(4-(6-isobutoxypyrimidin-4-yl)piperazin-1-yl)ethanone], the IC50 is < 3 µM.
In the case of `O=C(c1ccc2cccc(O)c2n1)N1CCN(c2cc(OCC(F)(F)F)ncn2)CC1` [Example 65, (8-hydroxyquinolin-2-yl)(4-(6-(2,2,2-trifluoroethoxy)pyrimidin-4-yl)piperazin-1-yl)methanone], the half-inhibitory concentration (IC50) is < 3 µM.
In the case of `CC(C)COc1cc(N2CCN(C(=O)CNC(=O)c3cccc4[nH]ccc34)CC2)ncn1` [Example 75, N-(2-(4-(6-isobutoxypyrimidin-4-yl)piperazin-1-yl)-2-oxoethyl)-1H-indole-4-carboxamide], the half-inhibitory concentration (IC50) was < 3 µM.
`CC(C)COc1cc(N2CCN(C(=O)CNC(=O)c3nn(C)c4ccccc34)CC2)ncn1` [Example 76, N-(2-(4-(6-isobutoxypyrimidin-4-yl)piperazin-1-yl)-2-oxoethyl)-1-methyl-1H-indazole-3-carboxamide]: the IC50 is < 3 µM.
Regarding `CC(C)COc1cc(N2CCN(C(=O)CNC3CCCCC3)CC2)ncn1` [Example 100, 2-(cyclohexylamino)-1-(4-(6-isobutoxypyrimidin-4-yl)piperazin-1-yl)ethanone], the IC50 was < 3 µM.
Same read-out and setting: in the case of `CC(C)COc1cc(N2CCN(C(=O)Cc3c[nH]c4ccccc34)CC2)ncn1` [Example 102, 2-(1H-indol-3-yl)-1-(4-(6-isobutoxypyrimidin-4-yl)piperazin-1-yl)ethanone] it was < 3 µM; in that of `O=C(Cc1c[nH]c2ccc(F)cc12)N1CCN(c2cc(OCC(F)(F)F)ncn2)CC1` [Example 110, 2-(5-fluoro-1H-indol-3-yl)-1-(4-(6-(2,2,2-trifluoroethoxy)pyrimidin-4-yl)piperazin-1-yl)ethanone], < 3 µM.
Turning to `CC(C)COc1cc(N2CCN(C(=O)COc3cccc4[nH]ccc34)CC2)ncn1` [Example 137, 2-((1H-indol-4-yl)oxy)-1-(4-(6-isobutoxypyrimidin-4-yl)piperazin-1-yl)ethanone], the half-maximal inhibitory concentration (IC50) is < 3 µM.
Still for that read-out and setting: for `CC(C)COc1cc(N2CCN(C(=O)COc3ccccc3C(F)(F)F)CC2)ncn1` [Example 143, 1-(4-(6-isobutoxypyrimidin-4-yl)piperazin-1-yl)-2-(2-(trifluoromethyl)phenoxy)ethanone] the value was < 3 µM.
As to `O=C(COc1cccc2cccnc12)N1CCN(c2cc(OCC(F)(F)F)ncn2)CC1` [Example 156, 2-(quinolin-8-yloxy)-1-(4-(6-(2,2,2-trifluoroethoxy)pyrimidin-4-yl)piperazin-1-yl)ethanone], the half-maximal inhibitory concentration (IC50) was < 3 µM.
Same read-out and setting: in the case of `CC(C)COc1cc(N2CCN(C(=O)COc3ccc4ccccc4n3)CC2)ncn1` [Example 160, 1-(4-(6-isobutoxypyrimidin-4-yl)piperazin-1-yl)-2-(quinolin-2-yloxy)ethanone] it was < 3 µM.
